Measured values: US7160989B2, “Antibodies that recognize and bind phosphorylated human androgen receptor and methods of using same” (New York University, priority 2003, dated 2007)

Assays:
P-S213 AR = P-S213 AR (Homo sapiens, UniProt P10275); settings: 293 cells, wild type AR, treated with R1881; FIG. 3B
Method: Preparation of nuclear and cytoplasmic lysates: Nuclear and cytoplasmic lysates were prepared according to (Lee et al., 1988). Cells (1×10^6 cells) were collected by centrifugation, swelled in a hypotonic buffer, and lysed by extruding the cells through a 25-gauge hypodermic needle. This homogenate was then centrifuged at 14,000 rpm for 5 min to pellet the nuclei, and the supernatant was saved as the cytoplasmic fraction. The proteins were extracted by re-suspension of the nuclear pellet in a high salt buffer and separation of debris by centrifugation. The resulting supernatant was retained as the nuclear fraction.
To assess the subcellular localization of AR-P-S213, fractionation studies were conducted in the presence of R1881.

AR S213 phosphorylation = molecular target: T1, AR S213 phosphorylation (Homo sapiens, UniProt P10275); assay: Immunoblot of AR S213 phosphorylation in 293 cells transfected with wild type AR; assay type: cell-based
T1 sequence (P10275 1-920): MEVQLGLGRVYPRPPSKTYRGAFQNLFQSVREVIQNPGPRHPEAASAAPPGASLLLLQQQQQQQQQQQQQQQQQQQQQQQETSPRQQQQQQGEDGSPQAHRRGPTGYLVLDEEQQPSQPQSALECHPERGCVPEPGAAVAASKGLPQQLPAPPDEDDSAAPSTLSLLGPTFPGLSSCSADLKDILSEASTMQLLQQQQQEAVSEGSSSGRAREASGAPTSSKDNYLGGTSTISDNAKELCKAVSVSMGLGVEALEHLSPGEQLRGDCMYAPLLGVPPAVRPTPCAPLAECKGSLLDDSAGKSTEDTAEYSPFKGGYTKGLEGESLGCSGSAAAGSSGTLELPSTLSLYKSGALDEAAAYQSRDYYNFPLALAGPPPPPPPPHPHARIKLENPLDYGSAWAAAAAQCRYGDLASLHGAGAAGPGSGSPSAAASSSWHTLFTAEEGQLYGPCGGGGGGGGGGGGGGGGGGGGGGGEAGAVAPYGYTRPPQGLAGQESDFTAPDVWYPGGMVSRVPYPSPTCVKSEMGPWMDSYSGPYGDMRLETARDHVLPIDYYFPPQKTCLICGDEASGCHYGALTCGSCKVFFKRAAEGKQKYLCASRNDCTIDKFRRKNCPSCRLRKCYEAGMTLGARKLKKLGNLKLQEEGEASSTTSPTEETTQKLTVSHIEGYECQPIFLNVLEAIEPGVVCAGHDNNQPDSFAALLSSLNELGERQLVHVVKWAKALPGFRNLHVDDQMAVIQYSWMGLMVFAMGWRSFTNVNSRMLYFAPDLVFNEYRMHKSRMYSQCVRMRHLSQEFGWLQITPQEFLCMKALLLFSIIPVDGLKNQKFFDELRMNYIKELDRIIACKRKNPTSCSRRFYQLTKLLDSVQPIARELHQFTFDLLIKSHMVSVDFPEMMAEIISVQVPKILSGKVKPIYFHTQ

phospho-MAPK (P-MAPK) = assay: Immunoblot of phospho-MAPK in transfected 293 cells; assay type: cell-based, human; settings: 293 cells treated with IGF-1; FIG. 4B

| Molecule | Sub-cellular localization of P-S213 AR (P-S213 AR) | AR S213 phosphorylation at 10 nM (AR S213 phosphorylation) | AR S213 phosphorylation at lower levels (AR S213 phosphorylation) | AR S213 phosphorylation, compound alone (AR S213 phosphorylation) | AR phosphorylation by hormone (AR S213 phosphorylation) | Earliest time at which phosphorylation may occur (AR S213 phosphorylation) [min] | Time at which phosphorylation above background is obvious (AR S213 phosphorylation) [min] | MAPK phosphorylation (phospho-MAPK (P-MAPK)) | AR phosphorylation with IGF-1 alone (AR S213 phosphorylation; 293 cells, IGF-1 alone 5 or 10 minutes or 2 hours, absence of R1881, FIG. 4B) |
| --- | --- | --- | --- | --- | --- | --- | --- | --- | --- |
| C[C@]1(O)CC[C@H]2[C@@H]3CCC4=CC(=O)CCC4=C3C=C[C@@]21C [R1881] | predominantly nuclear | robust phosphorylation | not at lower levels | phosphorylated | robust AR phosphorylation | ≥ 10 | 60 |  |  |
| IGF-1: growth factor used to treat 293 cells; phosphorylates MAPK |  |  |  |  |  |  |  | phosphorylated | does not result in AR phosphorylation |
